Read-outs that look alike come from different tables or passages of the source.
Target: T1, recombinant human Tie-2 protein (Homo sapiens, UniProt Q02763)
T1 construct: purchased Thermo Fisher Scientific Inc. PV3628
Experiment: Z′-Lyte FRET enzymatic activity assay of Tie-2 kinase
Type: biochemical
Settings: for Inhibition (%) @10 μg/ml / inhibition at 10 µg/mL: 10 μg/mL preliminary screening, Table S1; for Tie-2 inhibitory activity in words (active / inactive): VS candidates of Strategy 1, preliminary screening at 10 μg/mL

[1] = Z′-Lyte assay, 100 μM ATP, n ≥ 2 per concentration, read-out: IC50 (half-maximal inhibitory concentration), Tie-2 kinase
[2] = in the dose-response figure, read-out: IC50 (dose-dependent inhibitory effect), Tie-2 kinase (converted)

T1 sequence (Q02763 23-1124): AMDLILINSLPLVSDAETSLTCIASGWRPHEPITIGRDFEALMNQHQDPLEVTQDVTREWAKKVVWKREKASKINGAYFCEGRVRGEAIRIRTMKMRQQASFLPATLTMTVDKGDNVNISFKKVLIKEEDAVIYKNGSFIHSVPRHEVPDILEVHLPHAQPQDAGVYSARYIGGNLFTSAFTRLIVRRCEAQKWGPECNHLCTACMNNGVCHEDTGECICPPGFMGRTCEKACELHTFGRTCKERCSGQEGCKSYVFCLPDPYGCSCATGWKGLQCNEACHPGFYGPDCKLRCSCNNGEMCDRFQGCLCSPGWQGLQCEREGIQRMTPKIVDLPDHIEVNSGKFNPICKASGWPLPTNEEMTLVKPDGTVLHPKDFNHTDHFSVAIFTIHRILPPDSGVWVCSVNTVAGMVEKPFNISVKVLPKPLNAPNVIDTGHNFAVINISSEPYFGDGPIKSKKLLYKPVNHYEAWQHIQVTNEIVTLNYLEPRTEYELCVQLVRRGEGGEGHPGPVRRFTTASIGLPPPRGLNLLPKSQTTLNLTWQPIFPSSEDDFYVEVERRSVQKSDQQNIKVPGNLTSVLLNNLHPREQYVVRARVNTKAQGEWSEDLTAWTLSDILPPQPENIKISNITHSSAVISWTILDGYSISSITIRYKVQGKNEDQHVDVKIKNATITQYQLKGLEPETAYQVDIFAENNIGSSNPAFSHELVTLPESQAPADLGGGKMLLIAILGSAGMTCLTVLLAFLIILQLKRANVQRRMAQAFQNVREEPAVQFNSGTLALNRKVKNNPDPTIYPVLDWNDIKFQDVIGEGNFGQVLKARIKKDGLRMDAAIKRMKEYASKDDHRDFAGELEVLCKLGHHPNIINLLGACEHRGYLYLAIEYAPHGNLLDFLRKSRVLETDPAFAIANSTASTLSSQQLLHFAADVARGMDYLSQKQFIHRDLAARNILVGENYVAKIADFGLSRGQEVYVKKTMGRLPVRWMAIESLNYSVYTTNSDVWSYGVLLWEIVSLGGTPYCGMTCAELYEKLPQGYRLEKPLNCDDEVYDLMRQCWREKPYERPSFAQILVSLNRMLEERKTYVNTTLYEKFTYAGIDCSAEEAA
Protocol: In order to assess the biological inhibitory activity of the VS compounds, Z’-Lyte enzymatic activity assay based on FRET (Fluorescence Resonance Energy Transfer) technology was developed as described above. […] At first, all the compounds obtained from both filtering strategies were preliminary screened for their ability to inhibit Tie-2 kinase activity at the concentration of 10 μg/mL.
The Tie-2 kinase inhibitor (CAS#: 948557-43-5, purity ≥ 97%) was purchased from Merck Calbiochem (Darmstadt, Germany) and used as a positive control inhibitor in bioassays[40]. […] All the purchased screening compounds were firstly dissolved in dimethyl sulfoxide (DMSO) at a stock concentration of 5 mg/ml. The final working concentration of DMSO is less than 1%.
Compounds were tested for their ability to inhibit Tie-2 kinase activity using Z′-Lyte® kinase assay kit (ser/thr 5 peptide) with NUNC 384-well plate. In the first step, the test compounds and ATP solution were firstly prepared at 4 × desired concentration. The mixture of recombinant human Tie-2 protein and non-phosphorylated peptide at 2 × desired concentration was prepared in kinase reaction buffer A consisting of 50 mM HEPES (pH 7.5), 0.01% BRIJ-35, 10 mM MgCl2, 4 mM MnCl2, 1 mM EGTA and 2 mM DTT. Reactions were then carried out in a solution containing 2.5 μL test compounds, 5 μL Tie-2/Tyr 05 peptide mixture (10 ng Tie-2 and 2 μM Tyr 05 peptide) and 2.5 μL ATP (100 μM). Then, the assay plate was shaken for 30 seconds on a plate shaker, and incubated for 1 hour at room temperature (20~25 °C). After sufficient kinase reactions, 5 μL development reagent A was added to each well, and the plate was incubated for another hour. Finally, 5 μL stop reagent was added to terminate the reactions, and the coumarin and fluorescein emission signals (excitation: 400 nm; emission: 445 and 520 nm, respectively) were measured on a fluorescence plate reader (BioTek Synergy 4).

Inhibition (%) @10 μg/ml [%] | SMILES | other results
3.87±1.8 | CCOc1ccc(NC(=O)C(C)Sc2nc3ccccc3c(=O)n2-c2cccc(C)c2)cc1 (racemic) [TP-C1-36] | –
-280.42±23.11 | O=C(O)CC1SC(=NN=Cc2ccc(OC(=O)c3cccc4ccccc34)cc2)NC1=O (racemic) [TP-C2-19] | –
95.39±0.98 | CC1=C(C(=O)Nc2ccc(C)cc2C)C(c2ccc(OCc3ccccc3)cc2)NC(=S)N1 (racemic) [TP-C2-40] | IC50 [1]: 4.69 ± 0.37 µM
56.84±0.18 | N#Cc1cc2c([nH]c1=O)CC(c1ccccc1)CC2=NNc1ccccc1 (stereo not shown) [TP-C1-2] | –
25.58±3.23 | COc1cc(-c2nc3ccccn3c2N=Cc2c[nH]nc2-c2ccccc2)ccc1O [TP-C1-5] | –
9.84±11.04 | O=C(NCCNC(=O)c1cc2ccccc2cc1O)c1cc2ccccc2cc1O [TP-C1-7] | –
44.25±1.05 | Cc1cccc(-n2c(CCN3C(=O)c4ccccc4C3=O)nc3ccccc3c2=O)c1 [TP-C1-10] | –
3.6±13.1 | Cc1cccc(C(=O)Nc2ccc(-c3cc4ccccc4oc3=O)cc2)c1 [TP-C1-12] | –
28.98±1.34 | Cc1ccc(-c2cc(C(=O)OCC(=O)c3ccccc3)c3cccc(C)c3n2)cc1 [TP-C1-13] | Tie-2 inhibitory activity in words (active / inactive): inactive
-0.66±5.93 | CCc1ccc2oc(-c3ccc(NC(=S)NC(=O)c4cc5ccccc5o4)cc3)nc2c1 [TP-C1-15] | –
9.52±4.54 | CCOC(=O)CNS(=O)(=O)c1cc(-c2nnc(Nc3cccc(C)c3)c3ccccc23)ccc1C [TP-C1-16] | –
39.7±2.94 | O=c1cc(-c2ccccc2)c2ccc(OCc3cccc(C(F)(F)F)c3)cc2o1 [TP-C1-18] | Tie-2 inhibitory activity in words (active / inactive): inactive
39.83±5.94 | O=C(NCCc1cccc2ccccc12)C1CCCN1S(=O)(=O)c1ccc2ccccc2c1 (stereo not shown) [TP-C1-29] | –
11.44±0.49 | O=C(CC1c2ccccc2Oc2ccccc21)Nc1ccccn1 [TP-C1-30] | –
47.23±0.53 | COc1ccc(CNC(=O)CSc2nc3ccc(NC(=O)c4ccccc4C)cc3s2)cc1 [TP-C1-32] | –
69.07±3.54 | COc1ccc(-c2cc(-c3ccccc3)c(C#N)c(S(=O)(=O)Cc3ccccc3)n2)cc1 [TP-C1-35] | –

Inhibition (%) @10 μg/ml [%] | SMILES | other results
2.81±1.73 | O=c1[nH]c(-c2ccc(OCc3ccccc3F)cc2)nc2ccccc12 [TP-C1-40] | –
-27.08±4.67 | Cc1cc(C(=O)c2ccccc2)ccc1OC(=O)CN1C(=O)c2ccccc2C1=O [TP-C1-42] | –
54.56±1.99 | COc1ccccc1C(=O)Nc1ccc(Oc2ccc3c(c2)C(=O)NC3=O)cc1 [TP-C1-51] | –
20.01±0.68 | Cl.O=C(O)c1ccc(Cl)c(-c2ccc(CNCC(O)c3ccccc3)o2)c1 (stereo not shown) [TP-C1-55] | –
48.48±7.49 | O=c1[nH]nc(CCc2n[nH]c(=O)c3ccccc23)c2ccccc12 [TP-C2-1] | –
54.53±0.58 | Cc1cc(NC(=S)NC(=O)c2ccccc2C)ccc1NC(=O)c1ccccc1 [TP-C2-7] | –
46.26±3.21 | O=C(NC(=S)Nc1ccc(-c2nc3ccccc3o2)c(O)c1)c1cccc(Br)c1 [TP-C2-10] | –
87.61±5.43 | COc1cc(NC(=S)NC(=O)c2ccccc2OC)ccc1NC(=O)c1cc2ccccc2o1 [TP-C2-11] | IC50 [1]: 15.1 ± 0.92 µM
71.64±2.92 | COc1ccc(OC)c(Nc2nc(-c3cccc(NC(=O)c4ccccc4)c3)cs2)c1 [TP-C2-14] | –
72.64±14.95 | O=C(Nc1ccc(NC(=S)NC(=O)c2cccc3ccccc23)cc1)c1cccs1 [TP-C2-15] | –
84.1±0.44 | Cc1c(C(=O)NC(=S)Nc2ccc(-c3nc4ccccc4s3)cc2)oc2ccccc12 [TP-C2-16] | IC50 [1]: 8.83 ± 0.58 µM
43.81±7.48 | CCc1cc2c(-c3ccccc3)cc(=O)oc2cc1OCC(=O)c1ccc(F)cc1 [TP-C2-18] | –
36.45±0.94 | Cc1ccccc1OCC(=O)OCC(=O)c1ccc(OCc2ccccc2)cc1 [TP-C2-20] | –
75.19±7.09 | O=C(OCC(=O)c1ccccc1Cl)c1ccc2c(c1)-c1ccccc1C2=O [TP-C2-21] | –
47.13±8.4 | COc1ccc(C(CC(=O)c2ccccc2)CC(=O)c2ccccc2)cc1OC [TP-C2-23] | –

The remaining lines, values behind:

SMILES | Inhibition (%) @10 μg/ml [%] | other results
O=C(NN=Cc1ccc(N2N=C(c3ccccc3)CC2c2ccccc2)cc1)c1ccncc1 (racemic) [TP-C1-6] | 16.08±16.2 | Tie-2 inhibitory activity in words (active / inactive): inactive
Fc1ccc(C2CC(c3cccs3)=NN2C(=S)NCCc2ccccc2)cc1 (racemic) [TP-C1-39] | 56.09±2.14 | –
c1cncc(CN2CN(CC3CCCO3)c3nc4ccccc4n3C2)c1 (racemic) [TP-C1-56] | 29.83±0.28 | –
CCN1C(=O)NC(c2ccc(Cl)cc2)C(C(=O)OCCc2ccccc2)=C1C (racemic) [TP-C2-3] | 56.11±13.15 | –
COc1ccc(C2C(C(=O)c3cccs3)=C(O)C(=O)N2CCN(C)C)cc1OC (racemic) [TP-C2-17] | 66.32±3.22 | –
COc1cc2c(cc1OC)C(c1ccc(OCc3ccccc3)cc1)CC(=O)N2 (racemic) [TP-C2-27] | 55.28±4.04 | –
CCOC(=O)c1ccc(NC(=O)CN2C(=O)c3ccccc3C2=O)cc1 [TP-C1-3] | 37.64±1.82 | –
CCOc1ccc(CN(CCc2ccc3c(c2)OCO3)Cc2ccc(C)cc2)cc1 [TP-C1-9] | 17.49±0.65 | –
COc1cc(C=NN=C2SC(CC(=O)O)C(=O)N2c2ccc(O)cc2)ccc1O (stereo not shown) [TP-C1-11] | 37.56±1.85 | –
CCOc1cc(-c2nc3sc4c(c3c(=O)[nH]2)CCCC4)ccc1OCc1ccccc1F [TP-C1-14] | 10.67±4.7 | –
CCOc1ccc2c(c1)-c1c(ssc1=S)C(C)(C)N2C(=O)CSc1nc(C)cc(O)n1 [TP-C1-17] | – | inhibition at 10 µg/mL: 89.5 ± 2.93%; IC50 [1]: 4.45 ± 0.36 µM; IC50 [2]: 4.45 µM
CC1=C(C(=O)Nc2ccc(C)cc2C)C(c2ccc(O)cc2)NC(=S)N1 (stereo not shown) [TP-C1-21] | 58.96±3.25 | –
COc1cc(C(=O)n2c(SCc3ccc(F)cc3)nc3ccccc32)cc(OC)c1OC [TP-C1-22] | -46.75±1.97 | –
COc1cccc(C2C(C(=O)c3ccc(C)o3)=C(O)C(=O)N2CCN(C)C)c1 (stereo not shown) [TP-C1-25] | 3.13±1.45 | –
COCCCN1C(=O)C(O)=C(C(=O)c2ccc(Cl)cc2)C1c1ccc(O)cc1 (stereo not shown) [TP-C1-26] | 7.19±0.3 | –
O=C(CN(Cc1ccc(F)cc1)S(=O)(=O)c1ccc(Cl)cc1)NCc1ccccn1 [TP-C1-27] | 4.93±5.56 | –
O=C(CSc1nnc(-c2cccnc2)n1-c1ccccc1)c1ccc(F)cc1 [TP-C1-28] | 71.3±0.7 | IC50 [1]: 43.6 ± 2.32 µM
CCCCc1ccc(NC(=S)C2=C(NCc3ccc4c(c3)OCO4)CC(C)(C)CC2=O)cc1 [TP-C1-31] | 2.9±8.41 | Tie-2 inhibitory activity in words (active / inactive): inactive
CC(=O)Oc1ccccc1NC(=O)c1ccc2c(c1)C(=O)N(CC1CCCO1)C2=O (stereo not shown) [TP-C1-34] | 6.95±6.26 | –

SMILES | Inhibition (%) @10 μg/ml [%] | other results
O=C(OCc1ccccc1)c1cn(-c2ccccc2)nc1-c1ccncc1 [TP-C1-37] | 25.51±1.18 | IC50 [1]: 36.1 ± 1.33 µM
O=C(CN(c1ccc2c(c1)OCCO2)S(=O)(=O)c1ccccc1)Nc1cccnc1 [TP-C1-38] | 12.5±2.86 | –
Cc1c(C)n(Cc2ccccc2)c2ccc(C(=O)NNC(=S)NCC3CCCO3)cc12 (stereo not shown) [TP-C1-41] | 32.86±3.03 | –
Cc1ccccc1-c1nc(S(=O)(=O)c2ccc(Cl)cc2)c(NCc2cccnc2)o1 [TP-C1-43] | -0.28±1.12 | –
O=C(c1cc(-c2ccncc2)nc2ccc(Br)cc12)N1CCN(Cc2ccc3c(c2)OCO3)CC1 [TP-C1-45] | 63.88±1.45 | –
CC(=O)Nc1c(O)nc(SCC(=O)Nc2ccc(C(C)=O)cc2)[nH]c1=O [TP-C1-47] | – | inhibition at 10 µg/mL: 81.9 ± 1.73%; IC50 [1]: 5.15 ± 0.4 µM; IC50 [2]: 5.15 µM
COc1cccc(OC)c1C(=O)NC(=S)Nc1ccc(NC(=O)c2ccco2)c(Cl)c1 [TP-C1-49] | 49.58±1.56 | –
c1ccc(-c2nnc3n2N=C(c2c[nH]c4ccccc24)CS3)cc1 [TP-C1-50] | 61.04±3.33 | –
O=C1c2ccccc2C(=O)N1CCc1nn2c(-c3cccnc3)nnc2s1 [TP-C1-52] | – | inhibition at 10 µg/mL: 101 ± 2.04%; IC50 [1]: 15.3 ± 0.68 µM; fold decreased activity compared to TP-C1-17 and TP-C1-47 (from IC50 values): ~ 3 fold; IC50 [2]: 15.3 µM
c1ccc(-c2nnc(CSc3nnc(-c4ccncc4)[nH]3)o2)cc1 [TP-C1-53] | 28.39±0.73 | –
Cn1c(=O)[nH]c(=O)c2c1nc(NCCCO)n2CC(O)COc1ccccc1 (stereo not shown) [TP-C2-2] | 51.41±2.9 | –
CCOc1cc(C2C(C(=O)OCCc3ccccc3)=C(C)NC3=C2C(=O)CCC3)ccc1O (stereo not shown) [TP-C2-4] | 69.77±2.75 | –
CCCOc1ccc(N2C(=O)CC(N(CCc3ccc(OC)cc3)C(=O)c3cccc(F)c3)C2=O)cc1 (stereo not shown) [TP-C2-5] | 83.65±2.57 | IC50 [1]: 13.8 ± 1.02 µM
CCOc1ccc(CN(CCc2ccc3c(c2)OCO3)Cc2ccc(C(F)(F)F)cc2)cc1 [TP-C2-6] | 49.69±0.95 | –
COc1ccc(C(=O)NC(=S)Nc2ccc(-c3nc4cc(C)c(C)cc4o3)cc2)cc1OC [TP-C2-8] | 68.53±6.25 | –
COc1ccc(C(=O)NC(=S)Nc2ccc(NC(=O)c3cccc(C)c3)cc2)cc1OC [TP-C2-9] | – | inhibition at 10 µg/mL: 81.6 ± 2.85%; IC50 [1]: 1.86 ± 0.18 µM; IC50 [2]: 1.87 µM
Cc1ccc2nc(-c3ccc(NC(=S)NC(=O)c4oc5ccccc5c4C)cc3)oc2c1 [TP-C2-12] | 85.54±0.14 | IC50 [1]: 14.6 ± 1.21 µM
CC1(C)CC(=O)C(C(=S)Nc2ccccc2)=C(NCc2ccc3c(c2)OCO3)C1 [TP-C2-13] | 84.95±3.24 | IC50 [1]: 6.78 ± 0.36 µM
CC(=O)c1c(C)cc(C)c(CSc2ccccn2)c1C [TP-C2-22] | 90.2±6.92 | IC50 [1]: 8.44 ± 0.93 µM
